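Interpolation was linear, between the two tested concentrations surrounding the appropriate level; five concentrations were tested over 48 hours in 96-well plates. GI50 marks 50% less growth. TGI: concentration producing complete growth inhibition.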
Key:
Experiment in all cases: NCI tumour cell line growth inhibition, 48 h
HL-60(TB) leukemia = system: HL-60(TB) leukemia
SK-MEL-28 melanoma = system: SK-MEL-28 melanoma
SK-MEL-5 melanoma = system: SK-MEL-5 melanoma
SF-268 CNS = system: SF-268 CNS
K-562 leukemia = system: K-562 leukemia
HOP-92 NSCLC = system: HOP-92 NSCLC
SN12C renal = system: SN12C renal
OVCAR-4 ovarian = system: OVCAR-4 ovarian
LOX IMVI melanoma = system: LOX IMVI melanoma
T-47D breast = system: T-47D breast

SMILES | GI50 (HL-60(TB) leukemia) | TGI (HL-60(TB) leukemia) | GI50 (SK-MEL-28 melanoma) | TGI (SK-MEL-28 melanoma) | GI50 (SK-MEL-5 melanoma) | TGI (SK-MEL-5 melanoma) | GI50 (SF-268 CNS) | TGI (SF-268 CNS) | GI50 (K-562 leukemia) | TGI (K-562 leukemia) | GI50 (HOP-92 NSCLC) | TGI (HOP-92 NSCLC) | GI50 (SN12C renal) | TGI (SN12C renal) | GI50 (OVCAR-4 ovarian) | TGI (OVCAR-4 ovarian) | GI50 (LOX IMVI melanoma) | TGI (LOX IMVI melanoma) | GI50 (T-47D breast) | TGI (T-47D breast)
COc1ncnc(NS(=O)(=O)c2ccc(N=C3C(=O)N(CN4CCN(c5c(F)cc6c(=O)c(C(=O)O)cn(C7CC7)c6c5OC)CC4C)c4ccc(Br)cc43)cc2)c1OC (configuration not stated) | 8.4 µM | > 50 µM | > 50 µM | > 50 µM | 5.52 µM | 14.5 µM | 5.58 µM | > 50 µM | 1.69 µM | > 50 µM | 0.176 µM | 0.477 µM | 10.1 µM | 23.4 µM | > 50 µM | > 50 µM | 1.22 µM | 31.4 µM |  | 
CCCCC1(C)C=C/C(=C2/C(=O)O/C(=C\C(=O)O)C2=O)O1 (configuration not stated) |  | > 100 µM |  | > 100 µM |  | > 100 µM |  |  |  | > 100 µM |  |  |  | > 100 µM |  | > 100 µM |  | > 100 µM |  | 
C/C(=C\c1cnc(C)s1)[C@@H]1C[C@@H]2O[C@@H]2CCC[C@H](C)[C@H](O)[C@@H](C)C(=O)C(C)(C)[C@@H](O)CC(=O)O1 |  |  | > 100 µM | > 100 µM | < 0.01 µM | > 100 µM |  |  | < 0.01 µM | > 100 µM | < 0.0162 µM | > 100 µM | < 0.01 µM | > 100 µM |  | > 100 µM | < 0.01 µM | > 100 µM | 0.0171 µM | > 100 µM
CC1OC(OC2C(O)CC(OC3C(O)CC(OC4CCC5(C)C(CCC6C5CC(O)C5(C)C(C7=CC(=O)OC7)CCC65O)C4)OC3C)OC2C)CC(O)C1O (configuration not stated) | 0.0253 µM | 0.0564 µM | 0.152 µM | 0.302 µM | 0.0371 µM | 0.129 µM | 0.0359 µM | 0.133 µM | 0.0319 µM | 0.122 µM |  |  | 0.0391 µM | 0.248 µM | 0.0347 µM | 0.139 µM | 0.0428 µM | 0.164 µM | 0.0538 µM | 0.292 µM
N#CC(c1ccccn1)c1nc2ccccc2[nH]1 (configuration not stated) |  | > 100 µM |  | > 100 µM |  | > 100 µM |  | > 100 µM |  | > 100 µM |  |  |  | > 100 µM |  | > 100 µM |  |  |  | 
O=C(CCCCCCN1CC(=O)N2[C@@H](c3ccc(Cl)c(Cl)c3)c3[nH]c4ccccc4c3C[C@H]2C1=O)NO | 1.11 µM | 4.32 µM | 3.54 µM | 9.52 µM | 4.73 µM | 9.29 µM | 4.66 µM | 10.5 µM | 1.54 µM | 21.4 µM | 1.59 µM | 7.41 µM | 4.33 µM | 14.5 µM | 4.71 µM | 23.8 µM |  |  | 1.58 µM | 25.2 µM
O=C1c2sccc2-c2cccc3cccc1c23 (tested in a mixture with another compound) |  | 46.1 µM |  | > 100 µM |  |  |  | > 100 µM |  | 25.8 µM |  |  |  | 89.4 µM |  | 33.9 µM |  | 18.2 µM |  | 28.2 µM
Cc1nc(C(=O)O)c2ccccc2n1 |  | > 100 µM |  | > 100 µM |  | > 100 µM |  | > 100 µM |  | > 100 µM |  | > 100 µM |  | > 100 µM |  |  |  |  |  | 
O=S(=O)(c1cccc(N=C=S)c1)c1cccc(N=C=S)c1 |  | 50 µM |  | 33.6 µM |  | 36.3 µM |  | 39.8 µM |  | > 100 µM |  |  |  | 37.7 µM |  |  |  | 31.6 µM |  | 
N#CC(C#N)c1ccc(C(=O)N2CCC[C@H]2CO)cc1 |  | > 100 µM |  | > 100 µM |  | > 100 µM |  | > 100 µM |  | > 100 µM |  | > 100 µM |  | > 100 µM |  | > 100 µM |  | > 100 µM |  | 
COc1ccc(NC(=O)C2CCC(CNS(=O)(=O)c3ccccc3)CC2)cc1OC (configuration not stated) | > 100 µM | > 100 µM |  |  | > 100 µM | > 100 µM | 74.2 µM | > 100 µM |  |  | > 100 µM | > 100 µM | 2.69 µM | 69.5 µM | > 100 µM | > 100 µM | > 100 µM | > 100 µM |  | 
O=C(Nc1cccc(-n2cc(-c3ccncc3)c(-c3cc(O)cc(Cl)c3)n2)c1)c1cc(C(F)(F)F)cc(C(F)(F)F)c1 |  |  | 4.71 µM | 85.3 µM | 2.61 µM | 8.67 µM | 6.38 µM | > 100 µM | 3.24 µM | > 100 µM |  |  | 4.77 µM | > 100 µM | 8.53 µM | > 100 µM | 3.29 µM | 13.7 µM | 2.99 µM | 94.5 µM
COc1cc2c(cc1OC)-c1ncc3c(OC)c(OC)c(OC)cc3c1C2 | 10.2 µM | > 100 µM | > 100 µM | > 100 µM | 23.5 µM | > 100 µM | 4.97 µM | 16.5 µM | 10.7 µM | > 100 µM | 58.5 µM | > 100 µM |  |  | 96.5 µM | > 100 µM |  |  | 40.8 µM | > 100 µM
CCCCCO/N=C\c1c2c(O)c3c(O)c(C)c4c(c3c1O)C(=O)C(C)(O/C=C\C(OC)C(C)C(OC(C)=O)C(C)C(O)C(C)C(O)C(C)/C=C\C=C(\C)C(=O)N2)O4 (configuration not stated) | 2.92 µM | 6.34 µM | 1.66 µM | 3.02 µM | 1.5 µM | 2.82 µM | 1.66 µM | 3.23 µM | 3.57 µM | > 100 µM |  |  | 1.63 µM | 3.35 µM | 2.28 µM | 6.1 µM | 1.65 µM | 3.01 µM | 2.15 µM | 5.33 µM
COCCNC(=O)C1C(=O)C(=O)N(CCOC)C1=O (configuration not stated) |  |  |  | > 100 µM |  | > 100 µM |  | > 100 µM |  | > 100 µM |  | > 100 µM |  | > 100 µM |  | > 100 µM |  | > 100 µM |  | 
OC(C#Cc1ccccc1)(c1ccccc1)c1ccccc1 |  | > 100 µM |  | > 100 µM |  | 37.7 µM |  | 54.9 µM |  | > 100 µM |  |  |  | > 100 µM |  | > 100 µM |  | 38 µM |  | 78.1 µM
Cc1ccc(C)c(N2C(=O)C(=O)C(c3nc4ccccc4s3)/C(=N/NC(=O)NN)C2=O)c1 (configuration not stated) |  | > 100 µM |  | > 100 µM |  | > 100 µM |  | > 100 µM |  |  |  | > 100 µM |  | > 100 µM |  | > 100 µM |  |  |  | 

From PubChem BioAssay (NCI)
